The values below come from patent EP1038516A1, “Cosmetic composition comprising kynurenine” (Uchikuga, Saburoh, priority 1999, dated 2000).

Each structure is given as a SMILES string. Values joined by “and” are separate entries in the source; they are usually repeats but may differ in a detail not shown here. Equal entries are not always repeated.

Data set [1] in a line: Ultraviolet absorption (maximum absorption wavelength and molecular extinction coefficient). Conditions: for Maximum absorption wavelength (λmax): UV-A region (320 to 380 nm); for Molecular extinction coefficient (ε): at λmax in the UV-A region. The class given is physicochemical. An excerpt: The properties of kynurenine and the derivative thereof are collectively shown below in Table 1, along with the properties of "Palsole A". As apparently shown in the table and Fig. 1, the maximum absorption lengths (λmax) of kynurenine and the derivative thereof preferably reside in 360 to 365 nm in the UV-A region (320 to 380 nm) with the highest risk of direct darkening of skin. Kynurenine has a molecular extinction coefficient (ε) functioning as a marker of the intensity of ultraviolet absorption (ε = 4,000), which is about 1/10 of the commercially available Palsole A (ε = 36,000). […] Accordingly, such large quantity considered abnormal is required to be blended. Table 1 In addition to the UV-A region, kynurenine and the derivative thereof have the maximum absorption wavelength at 253 nm with the molecular extinction coefficient of 6,700. In other words, kynurenine and the derivative thereof exert absorption in the UV-C region ([…]). The ultraviolet ray in the UV-C region is generally absorbed in the ozone layer and therefore never reaches ground surface, so the absorption in the region is not meaningful as cosmetics. Kynurenine and the derivative thereof never exert absorption in the UV-B region (290 to 320 nm) in the erythema curve region with the highest risk in sunlight. Thus, an effect on the prevention of erythema against ultraviolet ray in the UV-B region cannot be expected.

For data set [2], the system named is tyrosinase. The experiment in a line: Test Example 1: disappearance of kynurenine / 3-hydroxykynurenine and pigment generation with tyrosinase and dopa or tyrosine. Conditions: 3.5 hours; for disappearance of kynurenine or 3-hydroxykynurenine: assayed at 355 nm. The class given is biochemical. Here is the method: 5 units of tyrosinase, 2.5 µmol of dopa or tyrosine, and 1 mg of kynurenine sulfate salt or 3-hydroxykynurenine dihydrate were dissolved in 0.1M phosphate buffer, pH 7.0 to a final volume of 5 ml and the resulting solution was agitated at ambient temperature for 3.5 hours; thereafter, the disappearance of kynurenine or 3-hydroxykynurenine was assayed at 355 nm, which corresponds to the λmax of kynurenine and 3-hydroxykynurenine in UV-A. The contents of the individual tests are shown below in Table 2. Table 2 [table]

Data set [3] has as its system tyrosinase. In words: Tyrosinase activity-inhibiting effect. Format: biochemical. From the text: It was expectantly assumed that kynurenine and the derivative thereof inhibited tyrosinase and thereby suppressed the generation of black melanin so that kynurenine and the derivative thereof could be utilized as an ingredient for preventing spot and freckle and the deposition of pigments.

The next data set relates to 5 bacterial strains. In words: Ames test (mutagenicity). The class given is cell-based. An excerpt: The kynurenine represented by the general formula I and substances relating thereto are metabolic intermediates of tryptophan and are essentially present in biological organisms; and the kynurenine and substances relating thereto are contained at particularly large quantities in the eyes of human new born babies and infants but are decreased over aging [J. Biochem., Vol. 89, 103 (1981)], and have therefore no safety problem.
The generated brown pigment is present in the eye, skin and wing of Arthropoda and Mollusca. The brown pigment is also contained in human eye. Because the brown pigment is widely distributed in animals in such manner, the generated pigment is greatly safe. The brown pigment (xanthommatin) was chemically synthesized according to the method in Angew. Chem., 69, Jahrg. 16 (1957) and subjected to Ames test.
(The Ames test detects mutagens through reverse mutation in bacteria.)

[4] abbreviates: Tests 1 and 2: tyrosinase +, dopa/tyrosine +, air +, pH 7.0, ambient temperature.

`Nc1c(O)cccc1C(=O)CC(N)C(=O)O` (stereo not drawn) [3-hydroxykynurenine]: in data set [1], the “Maximum absorption wavelength (λmax)” value amounted to 355 nm. The “disappearance of kynurenine or 3-hydroxykynurenine” value (from here on “disappearance”) in the data set on tyrosinase [2] (Test 3: tyrosinase with thermal treatment, dopa/tyrosine +, air +) was “no disappearance of 3-hydroxykynurenine observed”; with tyrosinase [2] (Test 4: tyrosinase +, no dopa/tyrosine, air +) it was “no disappearance of 3-hydroxykynurenine observed”; in the data set with tyrosinase [2] (setting [4]), “disappeared”. Further, the pigment generation entry with tyrosinase [2] (setting [4]) was “pigment generated”.
On to `COc1ccc(C(=O)CC(=O)c2ccc(C(C)(C)C)cc2)cc1` [Palsole A, reference compound], for which, in data set [1], the “Maximum absorption wavelength (λmax)” value is listed as 355 nm; the “Molecular extinction coefficient (ε)” value was 36,000 and 35,000.
Take `Nc1ccccc1C(=O)CC(N)C(=O)O` (stereo not drawn) [kynurenine]: the “molecular extinction coefficient (ε) relative to Palsole A” value in data set [1] (UV-A region) is “about 1/10”. In data set [1], the “Maximum absorption wavelength (λmax)” value is 355 nm and the “Molecular extinction coefficient (ε)” value is 4,000. Moreover, the tyrosinase-inhibiting ability result with tyrosinase [3] is reported as “never has any ability of tyrosinase inhibition or has the ability insufficiently”. Also, the “disappearance” value with tyrosinase [2] (Test 5: tyrosinase +, dopa/tyrosine +, no air) is “no disappearance of kynurenine observed”. In the data set with tyrosinase [2] (setting [4]), the pigment generation result is “pigment generated” and the “disappearance” value is recorded as “disappeared”.
As for `NC(CC(=O)c1cccc2oc3cc(=O)c4[nH]c(C(=O)O)cc(=O)c4c-3nc12)C(=O)O` (stereo not drawn) [xanthommatin], the mutagenicity entry in the data set on 5 bacterial strains was “No mutagenicity was observed”.
